Results: ChEMBL document CHEMBL1201862, “PubChem BioAssay data set” (2004)
Counter-ions that a name gives are not always drawn.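 Method: 48-hour compound exposure of cells in 96-well plates, five concentrations, linear interpolation of endpoints. GI50 = concentration required for 50% inhibition of growth.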 Active and inactive are the calls of the source. No stated cut-off is given here; in the data, active = GI50 up to about 1.1 µM and inactive = higher.

Tests used:
Assay in all cases: growth of human tumour cells (NCI), 48 h
DLD-1 = system: DLD-1
DMS-114 = system: DMS-114
HOP-18 = system: HOP-18
KM-20L2 = system: KM-20L2
M19-MEL = system: M19-MEL
RXF 631 = system: RXF 631
SNB-78 = system: SNB-78
DMS-273 = system: DMS-273

| Structure (SMILES) | GI50 (DLD-1) | GI50 (DMS-114) | GI50 (HOP-18) | GI50 (KM-20L2) | GI50 (M19-MEL) | GI50 (RXF 631) | GI50 (SNB-78) | GI50 (DMS-273) |
| --- | --- | --- | --- | --- | --- | --- | --- | --- |
| COc1ccc(C2(CN(C)C)COc3cc(OC)c(OC)cc3C2=O)cc1OC (stereo not drawn) | 20.1 µM (inactive) | 23.6 µM (inactive) | > 100 µM (inactive) | > 100 µM (inactive) | 66.8 µM (inactive) | 75.7 µM (inactive) | 41.3 µM (inactive) | – |
| O=c1/c(=C/c2ccc(Cl)cc2Cl)sc2nc3ccccc3n12 | > 100 µM (inactive) | > 100 µM (inactive) | > 100 µM (inactive) | > 100 µM (inactive) | > 100 µM (inactive) | > 100 µM (inactive) | > 100 µM (inactive) | > 100 µM (inactive) |
| CCOc1cn(C2OC(CO)C(O)C2O)c(=O)[nH]c1=O (stereo not drawn) | 90.2 µM (inactive) | > 100 µM (inactive) | > 100 µM (inactive) | > 100 µM (inactive) | > 100 µM (inactive) | – | > 100 µM (inactive) | > 100 µM (inactive) |
| CCCCCCCCc1cc2c(O)c(c1)Cc1cc(CCCCCCCC)cc(c1O)Cc1cc(CCCCCCCC)cc(c1O)Cc1cc(CCCCCCCC)cc(c1O)Cc1cc(CCCCCCCC)cc(c1O)Cc1cc(CCCCCCCC)cc(c1O)C2 | > 100 µM (inactive) | > 100 µM (inactive) | > 100 µM (inactive) | > 100 µM (inactive) | – | > 100 µM (inactive) | > 100 µM (inactive) | – |
| O=C(c1ccccc1)[C@H]1Nc2ccc(Cl)cc2[C@H]2c3ccccc3O[C@H]21 | 14 µM (inactive) | 15.8 µM (inactive) | 11.7 µM (inactive) | 14.9 µM (inactive) | 19.1 µM (inactive) | – | 14.9 µM (inactive) | 18.7 µM (inactive) |
| Oc1cc(-c2ccccc2)nc2cc(Cl)ccc12 | 0.384 µM (active) | 0.383 µM (active) | 11.2 µM (inactive) | 1.52 µM (inactive) | 0.575 µM (active) | – | 3.34 µM (inactive) | 0.526 µM (active) |
| CCCCC1(C(NC(=O)c2ccccc2Cl)c2ccncc2)C(=O)N(c2ccccc2)N(c2ccccc2)C1=O (stereo not drawn) | 39.7 µM (inactive) | 41.4 µM (inactive) | > 100 µM (inactive) | 59.7 µM (inactive) | 47.5 µM (inactive) | – | 56.8 µM (inactive) | 27 µM (inactive) |
| Nc1cccc2c1-c1c(cccc1[N+](=O)[O-])C2=O | > 100 µM (inactive) | > 100 µM (inactive) | > 100 µM (inactive) | > 100 µM (inactive) | > 100 µM (inactive) | – | > 100 µM (inactive) | > 100 µM (inactive) |
| CCC1CCC2CCCC(C)N12 (stereo not drawn) | > 100 µM (inactive) | > 100 µM (inactive) | > 100 µM (inactive) | > 100 µM (inactive) | > 100 µM (inactive) | > 100 µM (inactive) | – | > 100 µM (inactive) |
| CCc1cccc(C)c1NC(=O)CCc1nnc(SC)o1 | > 100 µM (inactive) | > 100 µM (inactive) | > 100 µM (inactive) | > 100 µM (inactive) | > 100 µM (inactive) | – | > 100 µM (inactive) | > 100 µM (inactive) |
| COC(=O)C1=CCS(=O)(=O)C1 | > 100 µM (inactive) | > 100 µM (inactive) | > 100 µM (inactive) | > 100 µM (inactive) | > 100 µM (inactive) | > 100 µM (inactive) | > 100 µM (inactive) | – |
| Cc1nccc2c1[nH]c1cc(O)ccc12 [HARMOL HYDROCHLORIDE] | 51.1 µM (inactive) | 70.3 µM (inactive) | 38 µM (inactive) | > 100 µM (inactive) | > 100 µM (inactive) | > 100 µM (inactive) | > 100 µM (inactive) | 54.5 µM (inactive) |
| CO[C@H]1CC[C@]2(C)C3=CC[C@@]4(C)C(CC[C@@H]4C(C)CC[C@@H](C)C(C)C)C(=CCC2C1)O3 (stereo partly drawn) | > 25 µM (inactive) | > 25 µM (inactive) | > 25 µM (inactive) | > 25 µM (inactive) | > 25 µM (inactive) | – | > 25 µM (inactive) | > 25 µM (inactive) |
| O=C1CCC2(c3ccc(F)cc3)Nc3cc(Cl)ccc3N12 (stereo not drawn) | > 100 µM (inactive) | 38.8 µM (inactive) | 48.3 µM (inactive) | > 100 µM (inactive) | > 100 µM (inactive) | – | > 100 µM (inactive) | > 100 µM (inactive) |
| N#CC(/C(=N/NC(N)=S)C(=O)Nc1cccc(Cl)c1)c1ccccc1 (stereo not drawn) | > 100 µM (inactive) | > 100 µM (inactive) | > 100 µM (inactive) | > 100 µM (inactive) | > 100 µM (inactive) | > 100 µM (inactive) | – | > 100 µM (inactive) |
| O=C(CC1(O)C(=O)Nc2c(Cl)ccc(Cl)c21)c1ccc(Cl)cc1Cl (stereo not drawn) | 28 µM (inactive) | 19.3 µM (inactive) | 35.1 µM (inactive) | 35.4 µM (inactive) | 7.16 µM (inactive) | – | 41.6 µM (inactive) | 16.4 µM (inactive) |
